The values below come from patent US20230113609A1, “SSTR5 ANTAGONISTS” (Kallyope, Inc., priority 2019, published 2023).

Each structure is given as a SMILES string. Where only a bound is given, the exact number is not on record here.

The target in the test is T1, human SSTR5 (Homo sapiens, UniProt P35346).
T1 construct: expressed in transfected cells
Briefly: Inositol phosphate accumulation assay (IP1 HTRF, antagonist mode). In kind it is cell-based. The following applies: CHO-K1 cells co-expressing human SSTR5 with Gqi5, SST28 agonist at concentration generating 90% of full activation. The method in brief:
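CHO-K1 cells stably co-expressing human SSTR5 and chimeric Gqi5 were pre-incubated with compound 15 minutes at 37° C, then stimulated with SST28 (30 nM as added, about EC90) for 90 minutes. IP1 read by HTRF (665/620 nm). % inhibition normalized to Max/Min controls; IC50 and maximal inhibition from 4-parameter fit.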
(In general: Time-resolved FRET reads energy transfer from a long-lived donor to a nearby acceptor.)

T1 sequence (P35346 whole entry): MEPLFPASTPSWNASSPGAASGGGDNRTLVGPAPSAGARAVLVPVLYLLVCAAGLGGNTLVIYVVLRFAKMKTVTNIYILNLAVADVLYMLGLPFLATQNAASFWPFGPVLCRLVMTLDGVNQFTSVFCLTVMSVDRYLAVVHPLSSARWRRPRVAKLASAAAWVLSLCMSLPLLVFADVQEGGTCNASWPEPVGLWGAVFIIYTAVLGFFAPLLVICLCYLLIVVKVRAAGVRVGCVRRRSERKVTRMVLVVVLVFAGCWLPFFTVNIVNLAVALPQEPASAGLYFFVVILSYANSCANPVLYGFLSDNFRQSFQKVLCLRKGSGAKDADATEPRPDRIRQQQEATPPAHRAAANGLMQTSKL

In turn, `CCOc1cc(-c2ccc(F)cc2)c(C2CC2)cc1CN1CCC2(CC1)CN(c1ccc(C(=O)NCCS(=O)(=O)O)cc1)C(=O)N2` [Example 71, 2-(4-(8-((2-cyclopropyl-5-ethoxy-4′-fluoro-[1,1′-biphenyl]-4-yl)methyl)-2-oxo-1,3,8-triazaspiro[4.5]decan-3-yl)benzamido)ethane-1-sulfonic acid] showed an IC50 not above 100 nM.

In turn, `CCOc1cc(-c2ccc(F)cc2F)c(C2CC2)cc1CN1CCC2(CC1)CN(c1ccc(C(=O)NCCOCCO)cc1)C(=O)N2` [Example 72, 4-(8-((2-cyclopropyl-5-ethoxy-2′,4′-difluoro-[1,1′-biphenyl]-4-yl)methyl)-2-oxo-1,3,8-triazaspiro[4.5]decan-3-yl)-N-(2-(2-hydroxyethoxy)ethyl)benzamide] showed an IC50 not above 100 nM.

Take `CCOc1cc(-c2ccc(F)cc2)c(C2CC2)cc1CN1CCC2(CC1)CN(c1ccc(C(=O)NCCOC(CO)CO)cc1)C(=O)N2` [Example 73, 4-(8-((2-cyclopropyl-5-ethoxy-4′-fluoro-[1,1′-biphenyl]-4-yl)methyl)-2-oxo-1,3,8-triazaspiro[4.5]decan-3-yl)-N-(2-((1,3-dihydroxypropan-2-yl)oxy)ethyl)benzamide]: the IC50 is not above 100 nM.

`CCOc1cc(-c2ccc(F)cn2)c(C2CC2)cc1CN1CCC2(CC1)CN(c1ccc(C(=O)NCCOCCO)cc1)C(=O)N2` [Example 74, 4-(8-(5-cyclopropyl-2-ethoxy-4-(5-fluoropyridin-2-yl)benzyl)-2-oxo-1,3,8-triazaspiro[4.5]decan-3-yl)-N-(2-(2-hydroxyethoxy)ethyl)benzamide] registered an IC50 not above 100 nM.

`CCOc1cc(C(=O)OC)c(C2CC2)cc1CN1CCC2(CC1)CN(c1ccc(C(=O)NCCO)cc1)C(=O)N2` [Example 75, methyl 2-cyclopropyl-5-ethoxy-4-((3-(4-((2-hydroxyethyl)carbamoyl)phenyl)-2-oxo-1,3,8-triazaspiro[4.5]decan-8-yl)methyl)benzoate] returned an IC50 of 100 to 1000 nM.

Turning to `CCOc1cc(C(=O)OC)c(C2CC2)cc1CN1CCC2(CC1)CN(c1ccc(C(=O)NCCOCCO)cc1)C(=O)N2` [Example 76, methyl 2-cyclopropyl-5-ethoxy-4-((3-(4-((2-(2-hydroxyethoxy)ethyl)carbamoyl)phenyl)-2-oxo-1,3,8-triazaspiro[4.5]decan-8-yl)methyl)benzoate], the IC50 is 100 to 1000 nM.

As for `CCOc1cc(C(=O)OC)c(C2CC2)cc1CN1CCC2(CC1)CN(c1ccc(C(=O)NCCCNC(N)=O)cc1)C(=O)N2` [Example 77, methyl 2-cyclopropyl-5-ethoxy-4-((2-oxo-3-(4-((3-ureidopropyl)carbamoyl)phenyl)-1,3,8-triazaspiro[4.5]decan-8-yl)methyl)benzoate], the IC50 is more than 5000 nM.

For `CCOc1cc(C(=O)OC)c(C2CC2)cc1CN1CCC2(CC1)CN(c1ccc(C(=O)NCCCS(=O)(=O)O)cc1)C(=O)N2` [Example 78, 3-(4-(8-(5-cyclopropyl-2-ethoxy-4-(methoxycarbonyl)benzyl)-2-oxo-1,3,8-triazaspiro[4.5]decan-3-yl)benzamido)propane-1-sulfonic acid], the 50% inhibitory concentration (IC50) was more than 5000 nM.

In turn, `CCOc1cc(C(=O)OC)c(C2CC2)cc1CN1CCC2(CC1)CN(c1ccc(C(=O)NCCCS(N)(=O)=O)cc1)C(=O)N2` [Example 79, methyl 2-cyclopropyl-5-ethoxy-4-((2-oxo-3-(4-((3-sulfamoylpropyl)carbamoyl)phenyl)-1,3,8-triazaspiro[4.5]decan-8-yl)methyl)benzoate] gave an IC50 of 100 to 1000 nM.

`CCOc1cc(-c2ccc(F)cn2)c(C2CC2)cc1CN1CCC2(CC1)CN(c1ccc(S(=O)(=O)NCCOCCO)cc1)C(=O)O2` [Example 82, 4-(8-(5-cyclopropyl-2-ethoxy-4-(5-fluoropyridin-2-yl)benzyl)-2-oxo-1-oxa-3,8-diazaspiro[4.5]decan-3-yl)-N-(2-(2-hydroxyethoxy)ethyl)benzenesulfonamide]: the IC50 is not above 100 nM.

In the case of `CCOc1cc(-c2ccc(F)cc2)c(C2CC2)cc1CN1CCC2(CC1)CN(c1ccc(S(=O)(=O)NCCOCCOCCO)cc1)C(=O)O2` [Example 83, 4-(8-((2-cyclopropyl-5-ethoxy-4′-fluoro-[1,1′-biphenyl]-4-yl)methyl)-2-oxo-1-oxa-3,8-diazaspiro[4.5]decan-3-yl)-N-(2-(2-(2-hydroxyethoxy)ethoxy)ethyl)benzenesulfonamide], the IC50 was not above 100 nM.

In the case of `CCOc1cc(C(=O)OC)c(C2CC2)cc1CN1CCN(C(=O)Oc2ccc(C(=O)NC[C@H](O)[C@@H](O)[C@H](O)[C@H](O)CO)cc2)CC1` [Example 96], the IC50 is 100 to 1000 nM.

`CCOc1cc(C(=O)OC)c(C2CC2)cc1CN1CCN(C(=O)Cc2ccc(C(=O)NC[C@H](O)[C@@H](O)[C@H](O)[C@H](O)CO)cc2)CC1` [Example 97, methyl 2-cyclopropyl-5-ethoxy-4-((4-(2-(4-(((2S,3R,4R,5R)-2,3,4,5,6-pentahydroxyhexyl)carbamoyl)phenyl)acetyl)piperazin-1-yl)methyl)benzoate] gave an IC50 of more than 5000 nM.

For the molecule `CCOc1cc(C(=O)OC)c(C2CC2)cc1CN1CCN(C(=O)Oc2cccc(C(=O)NC[C@H](O)[C@@H](O)[C@H](O)[C@H](O)CO)c2)CC1` [Example 98], the IC50 lay in the range of 100 to 1000 nM.

For the molecule `CCOc1cc(C(=O)OC)c(C2CC2)cc1CN1CCN(C(=O)Oc2ccc(C(=O)N3CC(CNC[C@H](O)[C@@H](O)[C@H](O)[C@H](O)CO)C3)cc2)CC1` [Example 99, 4-(3-((((2S,3R,4R,5R)-2,3,4,5,6-pentahydroxyhexyl)amino)methyl)azetidine-1-carbonyl)phenyl 4-(5-cyclopropyl-2-ethoxy-4-(methoxycarbonyl)benzyl)piperazine-1-carboxylate], the IC50 was in the range of 100 to 1000 nM.

`CCOc1cc(CN2CCC3(CC2)CN(c2ccc(C(=O)NCCCC(=O)NCCO)cc2)C(=O)O3)cc(OCC)c1-c1ccc(F)cc1` [compound 1, 4-(8-((2,6-diethoxy-4′-fluoro-[1,1′-biphenyl]-4-yl)methyl)-2-oxo-1-oxa-3,8-diazaspiro [4.5]decan-3-yl)-N-(4-((2-hydroxyethyl)amino)-4-oxobutyl)benzamide] displayed an IC50 of 100 to 1000 nM.

In the case of `CCOc1cc(C(=O)OC)c(C2CC2)cc1CN1CCC2(CC1)CC(=O)N(c1ccc(C(=O)NCCNC(=O)NCCO)cc1)C2` [compound 13, Methyl 2-cyclopropyl-5-ethoxy-4-[[2-[4-[2-(2-hydroxyethylcarbamoylamino)ethylcarbamoyl]phenyl]-3-oxo-2,8-diazaspiro[4.5]decan-8-yl]methyl]benzoate], the IC50 was more than 5000 nM.

The molecule `CCOc1cc(C(=O)OCc2oc(=O)oc2C)c(C2CC2)cc1CN1CCC2(CC1)CC(=O)N(c1ccc(C(=O)NC[C@H](O)[C@@H](O)[C@H](O)[C@H](O)CO)cc1)C2` [compound 24] gave an IC50 of more than 5000 nM.

With `CCOc1cc(-c2ccc(F)cc2)c(C2CC2)cc1CN1CCC2(CC1)CN(c1ccc(C(=O)NCCOCCO)cc1)C(=O)N2` [compound 65, 4-(8-((2-cyclopropyl-5-ethoxy-4′-fluoro-[1,1′-biphenyl]-4-yl)methyl)-2-oxo-1,3,8-triazaspiro[4.5]decan-3-yl)-N-(2-(2-hydroxyethoxy)ethyl)benzamide], the IC50 was not above 100 nM.

The molecule `CCOc1cc(-c2ccc(F)cc2)c(C2CC2)cc1CN1CCC2(CC1)CN(c1ccc(S(=O)(=O)NCCCNC(=N)N)cc1)C(=O)O2` [compound 80, 4-(8-((2-cyclopropyl-5-ethoxy-4′-fluoro-[1,1′-biphenyl]-4-yl)methyl)-2-oxo-1-oxa-3,8-diazaspiro [4.5]decan-3-yl)-N-(3-guanidinopropyl)benzenesulfonamide] yielded an IC50 not above 100 nM.

Consider `CCOc1cc(-c2ccc(F)cc2)c(C2CC2)cc1CN1CCC2(CC1)CN(c1ccc(S(=O)(=O)NCCOCCO)cc1)C(=O)N2` [compound 85, 4-(8-((2-cyclopropyl-5-ethoxy-4′-fluoro-[1,1′-biphenyl]-4-yl)methyl)-2-oxo-1,3,8-triazaspiro[4.5]decan-3-yl)-N-(2-(2-hydroxyethoxy)ethyl)benzenesulfonamide], for which the IC50 is not above 100 nM.

The molecule `CCOc1cc(S(C)(=O)=O)c(C2CC2)cc1CN1CCC2(CC1)CN(c1ccc(S(=O)(=O)N(Cc3ccc(OC)cc3)Cc3ccc(OC)cc3)cc1)C(=O)N2` [compound 86, 4-[8-[(5-cyclopropyl-2-ethoxy-4-methylsulfonyl-phenyl)methyl]-2-oxo-1,3,8-triazaspiro[4.5]decan-3-yl]-N,N-bis[(4-methoxyphenyl)methyl]benzenesulfonamide] registered an IC50 not above 100 nM.

`CCOc1cc(-c2ccc(F)cc2)c(C2CC2)cc1CN1CCC2(CC1)CN(c1ccc(C(=O)NCCOCCO)cc1)S(=O)(=O)N2` [compound 87, 4-(8-((2-cyclopropyl-5-ethoxy-4′-fluoro-[1,1′-biphenyl]-4-yl)methyl)-2,2-dioxido-2-thia-1,3,8-triazaspiro [4.5]decan-3-yl)-N-(2-(2-hydroxyethoxy)ethyl)benzamide]: the IC50 was not above 100 nM.

`CCOc1cc(-c2ccc(F)cn2)c(C2CC2)cc1CN1CCC2(CC1)CN([C@H]1CC[C@@](C)(C(=O)NCCCS(=O)(=O)O)CC1)C(=O)O2` [compound 88] registered an IC50 of 100 to 1000 nM.

For the molecule `CCOc1cc(-c2ccc(F)cn2)c(C2CC2)cc1CN1CCC2(CC1)CN([C@H]1CC[C@@](C)(C(=O)NCCOCCO)CC1)C(=O)O2` [compound 89], the IC50 was 100 to 1000 nM.

In turn, `CCOc1cc(-c2ccc(F)cn2)c(C2CC2)cc1CN1CCC2(CC1)CN([C@H]1CC[C@](C)(C(=O)NCCCS(=O)(=O)O)CC1)C(=O)O2` [compound 91] yielded an IC50 not above 100 nM.

The molecule `CCOc1cc(-c2ccc(F)cc2)c(C2CC2)cc1CN1CCC2(CC1)CN(C13CC(C(=O)NCCOCCO)(C1)C3)C(=O)O2` [compound 92, 3-(8-((2-cyclopropyl-5-ethoxy-4′-fluoro-[1,1′-biphenyl]-4-yl)methyl)-2-oxo-1-oxa-3,8-diazaspiro [4.5]decan-3-yl)-N-(2-(2-hydroxyethoxy)ethyl)bicyclo [1.1.1] pentane-1-carboxamide] gave an IC50 not above 100 nM.

In general, IC50 refers to the concentration that gives 50% inhibition. A high value points to a need for much substance.
